# Laboratory results: patent publication US20190083521A1, “COMBINATION THERAPY FOR TREATING CANCER” (Epizyme, Inc., priority 2014, published 2019)
# Counter-ions that a name gives are not always drawn.
# Test system: SKM-1 cells
# Test: Example 6 combination screen: 300 nM EPZ-5676 pre-treatment, second compound 72 h, ATPLite, IC50 shift
# Assay type: cell-based, human
# Conditions: not given
# Experimental: Cells were then equilibrated in incubators for 24 hours before treatment with a second compound. Treated assay plates were incubated with a second compound for 72 hours. After this time, plates were developed for endpoint analysis using ATPLite to measure ATP content, which is used as an indicator of cell viability.
# “N/D” means that IC50 of the second compound could not be determined for both conditions.
row,Compound,Summary of Combination Studies: SKM-1
1,Arsenic Trioxide,2.0

# Same assay, conditions: SKM-1 cells; 300 nM EPZ-5676 pre-treatment (4 + 3 days) vs DMSO, then 2nd compound 72 h; ATPLite; IC50 shift of 2nd compound
row,Compound,Summary of Combination Studies: SKM-1
1,C=C[C@@]1(C)CC(=O)[C@]2(O)[C@@]3(C)[C@@H](O)CCC(C)(C)[C@@H]3[C@H](OC(=O)CCN(C)C)[C@H](OC(C)=O)[C@@]2(C)O1.Cl [NKH 477],Synergy (considered synergistic if the IC50 value of the second compound decreased by 2-fold or more when EPZ-5676 was added as compared to the DMSO control)
2,CC1=C(/C=C/C(C)=C/C=C/C(C)=C/C(=O)O)C(C)(C)CCC1 [Tretinoin],Synergy (considered synergistic if the IC50 value of the second compound decreased by 2-fold or more when EPZ-5676 was added as compared to the DMSO control)
3,COc1ccc(Cc2nccc3cc(OC)c(OC)cc23)cc1OC [Papaverine Hydrochloride],Synergy (considered synergistic if the IC50 value of the second compound decreased by 2-fold or more when EPZ-5676 was added as compared to the DMSO control)
4,C#Cc1cccc(Nc2ncnc3cc(OCCOC)c(OCCOC)cc23)c1 [Erlotinib Hydrochloride],Synergy (considered synergistic if the IC50 value of the second compound decreased by 2-fold or more when EPZ-5676 was added as compared to the DMSO control)
5,COCc1c(C(C)C)nc(C(C)C)c(/C=C/[C@@H](O)C[C@@H](O)CC(=O)O)c1-c1ccc(F)cc1 [Cerivastatin Sodium],Synergy (considered synergistic if the IC50 value of the second compound decreased by 2-fold or more when EPZ-5676 was added as compared to the DMSO control)
6,Cc1sc2c(c1C)C(c1ccc(Cl)cc1)=N[C@@H](CC(=O)Nc1ccc(O)cc1)c1nnc(C)n1-2 [OTX015],Synergy (considered synergistic if the IC50 value of the second compound decreased by 2-fold or more when EPZ-5676 was added as compared to the DMSO control)
7,CC(C)CC(=O)Nc1[nH]nc2c1CN(C(=O)C1CCN(C)CC1)C2(C)C [PHA-793887],Synergy (considered synergistic if the IC50 value of the second compound decreased by 2-fold or more when EPZ-5676 was added as compared to the DMSO control)
8,O=C(Nc1cccc(Nc2ncc(Br)c(NCCc3cnc[nH]3)n2)c1)N1CCCC1 [BX-912],Synergy (considered synergistic if the IC50 value of the second compound decreased by 2-fold or more when EPZ-5676 was added as compared to the DMSO control)
